What was measured:
Format in all cases: functional
[1] = tested on: MDA-MB-435; assay: Cytotoxicity against Homo sapiens (human) MDA-MB-435 cells after 48 hr by sulforhodamine B assay; details: MDA-MB-435, 48 h
[2] = tested on: SW-620; assay: Cytotoxicity against Homo sapiens (human) SW620 cells after 48 hr by sulforhodamine B assay; details: SW-620, 48 h; for CC50: read-out: LC50 (the source's name)
[3] = tested on: NCI-H226; assay: Cytotoxicity against Homo sapiens (human) NCI-H226 cells after 48 hr by sulforhodamine B assay; details: NCI-H226, 48 h; for CC50: read-out: LC50 (the source's name)
[4] = tested on: HCT-15; assay: Cytotoxicity against Homo sapiens (human) HCT15 cells after 48 hr by sulforhodamine B assay; details: HCT-15, 48 h; for CC50: read-out: LC50 (the source's name)
[5] = tested on: NCI-H522; assay: Cytotoxicity against Homo sapiens (human) NCI-H522 cells after 48 hr by sulforhodamine B assay; details: NCI-H522, 48 h; for CC50: read-out: LC50 (the source's name)
[6] = tested on: Hs-578T; assay: Cytotoxicity against Homo sapiens (human) Hs 578T cells after 48 hr by sulforhodamine B assay
[7] = tested on: SNB-75; assay: Cytotoxicity against Homo sapiens (human) SNB75 cells after 48 hr by sulforhodamine B assay; details: SNB-75, 48 h; for CC50: read-out: LC50 (the source's name)
[8] = tested on: 786-0; assay: Cytotoxicity against Homo sapiens (human) 786-0 cells after 48 hr by sulforhodamine B assay; details: 786-0, 48 h
[9] = tested on: HCT-116; assay: Cytotoxicity against Homo sapiens (human) HCT116 cells after 48 hr by sulforhodamine B assay; details: HCT-116, 48 h; for CC50: read-out: LC50 (the source's name)
[10] = tested on: COLO 205; assay: Cytotoxicity against Homo sapiens (human) COLO205 cells after 48 hr by sulforhodamine B assay; details: COLO 205, 48 h; for CC50: read-out: LC50 (the source's name)
[11] = tested on: NCI-H460; assay: Cytotoxicity against Homo sapiens (human) NCI-H460 cells assessed as cell growth at 10^-4 M after 48 hr by Alamar blue assay; details: NCI-H460, 48 h, read-out: Activity
[12] = tested on: UACC-62; assay: Cytotoxicity against Homo sapiens (human) UACC62 cells after 48 hr by sulforhodamine B assay; details: UACC-62, 48 h
[13] = tested on: MDA-MB-231; assay: Cytotoxicity against Homo sapiens (human) MDA-MB-231 cells after 48 hr by sulforhodamine B assay; details: MDA-MB-231, 48 h
[14] = tested on: SNB-19; assay: Cytotoxicity against Homo sapiens (human) SNB19 cells after 48 hr by sulforhodamine B assay; details: SNB-19, 48 h
[15] = tested on: SF-268; assay: Cytotoxicity against Homo sapiens (human) SF268 cells assessed as cell growth at 10^-4 M after 48 hr by […] assay; details: SF-268, 48 h, read-out: Activity
[16] = tested on: UACC-257; assay: Cytotoxicity against Homo sapiens (human) UACC257 cells after 48 hr by sulforhodamine B assay; details: UACC-257, 48 h
[17] = tested on: KM12; assay: Cytotoxicity against Homo sapiens (human) KM12 cells after 48 hr by sulforhodamine B assay; details: KM12, 48 h; for CC50: read-out: LC50 (the source's name)
[18] = tested on: RPMI-8226; assay: Cytotoxicity against Homo sapiens (human) RPMI8226 cells after 48 hr by sulforhodamine B assay; details: RPMI-8226, 48 h; for CC50: read-out: LC50 (the source's name)
[19] = tested on: K562; assay: Cytotoxicity against Homo sapiens (human) K562 cells after 48 hr by sulforhodamine B assay; details: K562, 48 h; for CC50: read-out: LC50 (the source's name)
[20] = tested on: SN12C; assay: Cytotoxicity against Homo sapiens (human) SN12C cells after 48 hr by sulforhodamine B assay
[21] = tested on: A549; assay: Cytotoxicity against Homo sapiens (human) A549 cells after 48 hr by sulforhodamine B assay; details: A549, 48 h; for CC50: read-out: LC50 (the source's name)
[22] = tested on: HOP-92; assay: Cytotoxicity against Homo sapiens (human) HOP92 cells after 48 hr by sulforhodamine B assay; details: HOP-92, 48 h; for CC50: read-out: LC50 (the source's name)
[23] = tested on: ACHN; assay: Cytotoxicity against Homo sapiens (human) ACHN cells after 48 hr by sulforhodamine B assay; details: for CC50: read-out: LC50 (the source's name)
[24] = tested on: TK-10; assay: Cytotoxicity against Homo sapiens (human) TK10 cells after 48 hr by sulforhodamine B assay; details: TK-10, 48 h; for CC50: read-out: LC50 (the source's name)
[25] = tested on: SF-539; assay: Cytotoxicity against Homo sapiens (human) SF539 cells after 48 hr by sulforhodamine B assay; details: SF-539, 48 h
[26] = tested on: OVCAR-4; assay: Cytotoxicity against Homo sapiens (human) OVCAR4 cells after 48 hr by sulforhodamine B assay; details: OVCAR-4, 48 h
[27] = tested on: A498; assay: Cytotoxicity against Homo sapiens (human) A498 cells after 48 hr by sulforhodamine B assay; details: A498, 48 h

## Nc1nc(Cl)c2ncn(Cc3cccc(CCl)c3)c2n1
[1]
  GI50: 3.81 µM
  LC50: 85.1 µM
  TGI: 22.4 µM
[2]
  GI50: 3.8 µM
  TGI: 11.2 µM
  CC50: 57.5 µM
[3]
  GI50: 10.7 µM
  TGI: 42.6 µM
  CC50: > 100 µM
[4]
  GI50: 2.51 µM
  TGI: 6.76 µM
  CC50: 33.1 µM
[5]
  GI50: 3.31 µM
  TGI: 13.5 µM
  CC50: 81.3 µM
[6]
  GI50: 11.5 µM
  LC50: > 100 µM
  TGI: 60.2 µM
[7]
  GI50: 5.75 µM
  TGI: 19.5 µM
  CC50: 51.3 µM
[8]
  GI50: 6.6 µM
  LC50: 91.2 µM
  TGI: 26.3 µM
[9]
  GI50: 1.99 µM
  TGI: 3.89 µM
  CC50: 75.9 µM
[10]
  GI50: 6.76 µM
  TGI: 27.5 µM
  CC50: 97.7 µM
[11]
  growth at 100 µM: 0%
[12]
  GI50: 2.09 µM
  LC50 (concentration causing 50% net cell kill): 13.5 µM
  TGI: 4.78 µM
[13]
  GI50: 12 µM
  LC50: 69.2 µM
  TGI: 28.8 µM
[14]
  GI50: 3.16 µM
  LC50: 46.8 µM
  TGI: 15.1 µM
[15]
  growth at 100 µM: 0%
[16]
  GI50: 5.75 µM
  LC50 (concentration killing 50% of cells): 49 µM
  TGI: 19.5 µM
[17]
  GI50: 3.31 µM
  TGI: 13.2 µM
  CC50: 37.1 µM
[18]
  GI50: 2.39 µM
  TGI: 11.8 µM
  CC50: > 100 µM
[19]
  GI50: 4.36 µM
  TGI: > 100 µM
  CC50: > 100 µM
[20]
  GI50: 4.46 µM
  LC50 (50% lethal concentration): 39.8 µM
  TGI: 15.5 µM
[21]
  GI50: 12.3 µM
  TGI: 27.5 µM
  CC50: 63.1 µM
[22]
  GI50: 0.63 µM
  TGI: 38 µM
  CC50: > 100 µM
[23]
  GI50: 2.88 µM
  TGI: 8.71 µM
  CC50: 29.5 µM
[24]
  GI50: 2.39 µM
  TGI: 7.08 µM
  CC50: 27.5 µM
[25]
  GI50: 4.67 µM
  LC50 (concentration killing 50% of cells): 69.2 µM
  TGI: 20.4 µM
[26]
  GI50: 1.95 µM
  LC50 (concentration killing 50% of cells): 9.54 µM
  TGI: 4.26 µM
[27]
  GI50: 25.1 µM
  LC50 (lethal concentration, 50% cell kill): > 100 µM
  TGI: 51.3 µM

## ClCc1ccccc1Cn1cnc2ncnc(Cl)c21
[1]
  GI50: 1.94 µM
  LC50: 7.58 µM
  TGI: 3.8 µM
[2]
  GI50: 2.23 µM
  TGI: 4.67 µM
  CC50: 10 µM
[3]
  GI50: 3.38 µM
  TGI: 7.94 µM
  CC50: > 100 µM
[4]
  GI50: 1.38 µM
  TGI: 2.88 µM
  CC50: 6.16 µM
[5]
  GI50: 2.81 µM
  TGI: 75.9 µM
  CC50: > 100 µM
[6]
  GI50: 2.29 µM
  LC50: 66.1 µM
  TGI: 6.02 µM
[7]
  GI50: 11.2 µM
  TGI: 26.9 µM
  CC50: 63.1 µM
[8]
  GI50: 3.98 µM
  LC50: 47.9 µM
  TGI: 12.9 µM
[9]
  GI50: 1.51 µM
  TGI: 4.07 µM
  CC50: 40.7 µM
[10]
  GI50: 4.36 µM
  TGI: > 100 µM
  CC50: > 100 µM
[11]
  growth at 100 µM: 0%
[12]
  GI50: 1.86 µM
  LC50 (concentration causing 50% net cell kill): 19.1 µM
  TGI: 5.12 µM
[13]
  GI50: 2.75 µM
  LC50: 25.1 µM
  TGI: 6.91 µM
[14]
  GI50: 7.24 µM
  LC50: > 100 µM
  TGI: > 100 µM
[15]
  growth at 100 µM: 0%
[16]
  GI50: 5.88 µM
  LC50 (concentration killing 50% of cells): 61.6 µM
  TGI: 21.9 µM
[17]
  GI50: 3.63 µM
  TGI: 11.2 µM
  CC50: 38 µM
[18]
  GI50: 2.08 µM
  TGI: 5.49 µM
  CC50: 50.1 µM
[19]
  GI50: 2.23 µM
  TGI: 5.88 µM
  CC50: 83.2 µM
[20]
  GI50: 2.95 µM
  LC50 (50% lethal concentration): 42.6 µM
  TGI: 8.51 µM
[21]
  GI50: 4.46 µM
  TGI: 24 µM
  CC50: > 100 µM
[22]
  GI50: 4.36 µM
  TGI: 12.9 µM
  CC50: 51.3 µM
[23]
  GI50: 1.99 µM
  TGI: 4.26 µM
  CC50: 9.12 µM
[24]
  GI50: 3.46 µM
  TGI: 9.54 µM
  CC50: 33.9 µM
[25]
  GI50: 2.34 µM
  LC50 (concentration killing 50% of cells): 12 µM
  TGI: 5.01 µM
[26]
  GI50: 4.89 µM
  LC50 (concentration killing 50% of cells): 77.6 µM
  TGI: 20.4 µM
[27]
  GI50: 18.6 µM
  LC50 (lethal concentration, 50% cell kill): 57.5 µM
  TGI: 33.1 µM

## ClCc1cccc(Cn2cnc3ncnc(Cl)c32)c1
[1]
  GI50: 3.46 µM
  LC50: 39.8 µM
  TGI: 12.9 µM
[2]
  GI50: 15.1 µM
  TGI: 32.4 µM
  CC50: 7.41 µM
[3]
  GI50: 3.16 µM
  TGI: 8.7 µM
  CC50: 9.33 µM
[4]
  GI50: 1.94 µM
  TGI: 4.36 µM
  CC50: > 100 µM
[5]
  GI50: 6.16 µM
  TGI: 24 µM
  CC50: > 100 µM
[6]
  GI50: 18.2 µM
  LC50: 97.7 µM
  TGI: 42.6 µM
[7]
  GI50: 1.86 µM
  TGI: 3.54 µM
  CC50: 7.94 µM
[8]
  GI50: 2.04 µM
  LC50: 70.8 µM
  TGI: 4.07 µM
[9]
  GI50: 1.77 µM
  TGI: 5.24 µM
  CC50: 9.54 µM
[10]
  GI50: 2.63 µM
  TGI: > 100 µM
  CC50: 6.3 µM
[11]
  growth at 100 µM: 0%
[12]
  GI50: 2.18 µM
  LC50 (concentration causing 50% net cell kill): 38.9 µM
  TGI: 5.37 µM
[13]
  GI50: 1.73 µM
  LC50: 6.76 µM
  TGI: 3.38 µM
[14]
  LC50: 6.76 µM
[15]
  growth at 100 µM: 0%
[16]
  GI50: 1.94 µM
  LC50 (concentration killing 50% of cells): 18.6 µM
  TGI: 5.49 µM
[17]
  GI50: 1.86 µM
  TGI: 3.31 µM
  CC50: 67.6 µM
[18]
  GI50: 13.8 µM
  TGI: 34.7 µM
  CC50: 89.1 µM
[19]
  GI50: 16.6 µM
  TGI: 47.9 µM
  CC50: > 100 µM
[20]
  GI50: 7.07 µM
  LC50 (50% lethal concentration): 6.16 µM
  TGI: 20.4 µM
[21]
  GI50: 17.4 µM
  TGI: 39.8 µM
  CC50: 91.2 µM
[22]
  CC50: 52.5 µM
[23]
  GI50: 1.86 µM
  TGI: 3.54 µM
  CC50: 7.76 µM
[24]
  GI50: 1.77 µM
  TGI: 3.31 µM
  CC50: 6.3 µM
[25]
  GI50: 19.9 µM
  TGI: 36.3 µM
[26]
  GI50: 4.16 µM
  LC50 (concentration killing 50% of cells): 46.8 µM
  TGI: 15.8 µM
[27]
  GI50: 18.2 µM
  LC50 (lethal concentration, 50% cell kill): 6.6 µM
  TGI: 36.3 µM

Reference: ChEMBL document CHEMBL3044672, “N9- and N7-(Chloromethyl Phenymethyl)Chloropurine Derivatives from , '-Dichloroxylenes: Synthesis and Anticancer Activity” (2005)
